In ChEMBL document CHEMBL1151844, “Flavonoid glucosides from the hairy roots of Catharanthus roseus” (J Nat Prod, 2009):
Activity calls are given as the source filed them. The rule behind the calls is not given here.

How the values were obtained:
THP-1 [1] = assay: Antiinflammatory activity against human THP1 cells assessed as inhibition of LPS-induced MMP9 expression pretreated 2 hrs before LPS challenge measured after 24 hrs by SDS-PAGE; format: functional, cell-based
Ca-Ski = assay: Cytotoxicity against human CaSki cells by; format: functional, cell-based
DLD2 = assay: Cytotoxicity against human DLD2 cells; format: functional, cell-based
A549 = assay: Cytotoxicity against human A549 cells; format: functional, cell-based
THP-1 [2] = assay: Antiinflammatory activity against human THP1 cells assessed as inhibition of LPS-induced TNFalpha release at 7.3 to 29.4 uM pretreated 2 hrs before LPS challenge measured after 24 hrs by ELISA; format: functional, cell-based
MCF7 = assay: Cytotoxicity against human MCF7 cells; format: functional, cell-based
THP-1 [3] = assay: Cytotoxicity against LPS-stimulated human THP1 cells assessed as cell viability at 29.4 uM pretreated 2 hrs before LPS-challenge measured after 24 hrs by MTS assay; format: cell-based; settings: thp-1, 24 h
THP-1 [4] = assay: Cytotoxicity against LPS-stimulated human THP1 cells assessed as cell viability at 25.9 uM pretreated 2 hrs before LPS-challenge measured after 24 hrs by MTS assay; format: cell-based; settings: thp-1, 24 h
THP-1 [5] = assay: Antiinflammatory activity against human THP1 cells assessed as inhibition of LPS-induced TNFalpha release at 6.5 to 25.9 uM pretreated 2 hrs before LPS challenge measured after 24 hrs by ELISA; format: functional, cell-based
THP-1 [6] = assay: Cytotoxicity against LPS-stimulated human THP1 cells assessed as cell viability at 26.9 uM pretreated 2 hrs before LPS-challenge measured after 24 hrs by MTS assay; format: cell-based; settings: thp-1, 24 h
THP-1 [7] = assay: Antiinflammatory activity against human THP1 cells assessed as inhibition of LPS-induced TNFalpha release at 6.7 to 26.9 uM pretreated 2 hrs before LPS challenge measured after 24 hrs by ELISA; format: functional, cell-based
THP-1 [8] = assay: Antiinflammatory activity against human THP1 cells assessed as inhibition of LPS-induced TNFalpha release at 7.3 to 29.0 uM pretreated 2 hrs before LPS challenge measured after 24 hrs by ELISA; format: functional, cell-based
THP-1 [9] = assay: Cytotoxicity against LPS-stimulated human THP1 cells assessed as cell viability at 29.0 uM pretreated 2 hrs before LPS-challenge measured after 24 hrs by MTS assay; format: cell-based; settings: thp-1, 24 h

| SMILES | Activity (THP-1 [1]) | Activity (Ca-Ski) | Activity (DLD2) | Activity (A549) | Activity (THP-1 [2]) | Activity (MCF7) | Activity (THP-1 [3]) | Activity (THP-1 [4]) | Activity (THP-1 [5]) | Activity (THP-1 [6]) | Activity (THP-1 [7]) | Activity (THP-1 [8]) | Activity (THP-1 [9]) |
| --- | --- | --- | --- | --- | --- | --- | --- | --- | --- | --- | --- | --- | --- |
| C=C(CCC=C(C)C)CC/C=C(\C)CC(=O)OC[C@H]1O[C@@H](Oc2ccc3c(c2)O[C@@H](c2ccc(OC)c(OC)c2)CC3=O)[C@H](O)[C@@H](O)[C@@H]1O | Dose-dependent effect | Not toxic | Not toxic | Not toxic | Active | Not toxic | Non-toxic | – | – | – | – | – | – |
| C/C=C(\C)C(CCC(C)CCCC(C)CCCC(C)C)O[C@H]1[C@H](O)[C@@H](O)[C@H](Oc2cc(O)c3c(=O)c(O)c(-c4ccc(OC)c(OC)c4)oc3c2)O[C@@H]1CO (stereo partly drawn) | Dose-dependent effect | Not toxic | Not toxic | Not toxic | – | Not toxic | – | Non-toxic | Active | – | – | – | – |
| CCC(C)C(CCC(C)CCCC(C)CCCC(C)C)O[C@H]1[C@H](O)[C@@H](O)[C@H](Oc2c(-c3ccc(OC)cc3)oc3cc(O)cc(O)c3c2=O)O[C@@H]1CO (stereo partly drawn) | Dose-dependent effect | Not toxic | Not toxic | Not toxic | – | Not toxic | – | – | – | Non-toxic | Active | – | – |
| COc1ccc([C@H]2CC(=O)c3ccc(O[C@@H]4O[C@H](COC(=O)CC(C)CCCC(CO)CCCC(C)C)[C@@H](O)[C@H](O)[C@H]4O)cc3O2)cc1OC (stereo partly drawn) | Dose-dependent effect | Not toxic | Not toxic | Not toxic | – | Not toxic | – | – | – | – | – | Active | Non-toxic |
